The results in this text go back to patent publication US12398097B2, “WDR5-MYC inhibitors” (Vanderbilt University, priority 2019, dated 2025).

The target in the test is WDR5 (Homo sapiens, UniProt P61964). As to the kind of experiment: Competition-based fluorescence polarization anisotropy assay. Conditions: binding to WDR5; displacement of FITC-labeled small molecule probe (analogous to Example J2 or HCH-25) or peptide probe FITC-AHx-SEEEIDVVSV; pH 6.0; Ki converted from IC50. A digest of the protocol: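 Competition fluorescence polarization anisotropy binding to WDR5 using a FITC-labeled peptide probe or a fluorescently labeled small-molecule probe. Buffer: 200 mM phosphate, 300 mM NaCl, 0.5 mM TCEP, 0.1% Chaps, pH 6.0. Displacement data were converted to Ki.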

`O=C(c1cc(OC(F)(F)F)cc(NS(=O)(=O)c2cc(Br)ccc2O)c1O)N1CCC[C@@H]1CO` [Example J170, (R)-5-Bromo-2-hydroxy-N-(2-hydroxy-3-(2-(hydroxymethyl)pyrrolidine-1-carbonyl)-5-(trifluoromethoxy)phenyl)benzenesulfonamide] gave a Ki of 2840 nM.
With `CN(C)CCCS(=O)(=O)c1cc(Cl)cc(NS(=O)(=O)c2cc(Br)ccc2O)c1` [Example S52, 5-Bromo-N-(3-chloro-5-((3-(dimethylamino)propyl)sulfonyl)phenyl)-2-hydroxybenzenesulfonamide] the figure was 830 nM; with `COc1ccc(Br)cc1S(=O)(=O)Nc1cc(Cl)cc(NC(C)=O)c1O` [Example J200, N-(3-((5-Bromo-2-methoxyphenyl)sulfonamido)-5-chloro-2-hydroxyphenyl)acetamide], 68800 nM.
With `COC[C@@H]1CCCN1C(=O)c1cc(Cl)cc(NS(=O)(=O)c2cc(Br)ccc2O)c1O` [Example J29, (S)-5-Bromo-N-(5-chloro-2-hydroxy-3-(2-(methoxymethyl)pyrrolidine-1-carbonyl)phenyl)-2-hydroxybenzenesulfonamide] the figure was 4000 nM; with `CCN(CC)CCS(=O)(=O)c1cc(Cl)cc(NS(=O)(=O)c2cc(Br)ccc2OC)c1` [Example S46, 5-Bromo-N-(3-chloro-5-((2-(diethylamino)ethyl)sulfonyl)phenyl)-2-methoxybenzenesulfonamide], 20600 nM.
In the case of `Cc1c(-c2ccccc2)cc(NS(=O)(=O)c2cc(Br)ccc2O)c(O)c1C(=O)O` [Example J184, 5-((5-Bromo-2-hydroxyphenyl)sulfonamido)-4-hydroxy-2-methyl-[1,1′-biphenyl]-3-carboxylic acid], the Ki worked out at 1620 nM.
Take `N#CC1(c2ccc(O)c(NS(=O)(=O)c3cc(Br)ccc3O)c2)CCCCC1` [JDM-06-030C, 5-Bromo-N-(5-(1-cyanocyclohexyl)-2-hydroxyphenyl)-2-hydroxybenzenesulfonamide]: the Ki amounted to 230 nM.
In the case of `CS(=O)(=O)c1cc(C2(C#N)CCC2)cc(NS(=O)(=O)c2cc(Br)cc3cccnc23)c1O` [Example S61, 6-Bromo-N-(5-(1-cyanocyclobutyl)-2-hydroxy-3-(methylsulfonyl)phenyl)quinoline-8-sulfonamide], the affinity, expressed as Ki, was 190 nM.
With `CS(=O)(=O)c1cc(Cl)cc(NS(=O)(=O)c2cc(Br)ccc2O)c1O` [Example S17, 5-Bromo-N-(5-chloro-2-hydroxy-3-(methylsulfonyl)phenyl)-2-hydroxybenzenesulfonamide] the figure was 90 nM; with `COc1cc(OC)c(S(=O)(=O)Nc2cc(Cl)cc([N+](=O)[O-])c2O)cc1Br` [NE8, 5-Bromo-N-(5-chloro-2-hydroxy-3-nitrophenyl)-2,4-dimethoxybenzenesulfonamide], 7240 nM.
With `CS(=O)(=O)c1cc(NS(=O)(=O)c2cc(Br)ccc2O)cc(OC(F)(F)F)c1` [Example S11, 5-Bromo-2-hydroxy-N-(3-(methylsulfonyl)-5-(trifluoromethoxy)phenyl)benzenesulfonamide] the figure was 820 nM.
Regarding `O=C(NCC(O)c1ccsc1)c1cc(OC(F)(F)F)cc(NS(=O)(=O)c2cc(Br)ccc2O)c1O` (centres unmarked) [HCH-43, 3-((5-Bromo-2-hydroxyphenyl)sulfonamido)-2-hydroxy-N-(2-hydroxy-2-(thiophen-3-yl)ethyl)-5-(trifluoromethoxy)benzamide], the affinity corresponds to a Ki of 430 nM.
With `COc1ccc(Br)cc1S(=O)(=O)Nc1cc(Cl)cc(C(=O)NC2CCOC2)c1O` (centres unmarked) [Example J60, 3-((5-Bromo-2-methoxyphenyl)sulfonamido)-5-chloro-2-hydroxy-N-(tetrahydrofuran-3-yl)benzamide] the figure was 940 nM; with `COc1ccc(Br)cc1S(=O)(=O)Nc1cc(Cl)cc(C(=O)N2CCC[C@H]2CO)c1O` [Example J54, (S)-5-Bromo-N-(5-chloro-2-hydroxy-3-(2-(hydroxymethyl)pyrrolidine-1-carbonyl)phenyl)-2-methoxybenzenesulfonamide], 6840 nM.
With `O=C(NCC1CCOC1)c1cc(OC(F)(F)F)cc(NS(=O)(=O)c2cc(Br)ccc2O)c1O` (centres unmarked) [Example J166, 3-((5-Bromo-2-hydroxyphenyl)sulfonamido)-2-hydroxy-N-((tetrahydrofuran-3-yl)methyl)-5-(trifluoromethoxy)benzamide] the figure was 680 nM.
As to `CNC(=O)c1cc(C2(C#N)CCC2)cc(NS(=O)(=O)c2cc(Br)cc(OC(F)(F)F)c2O)c1O` [Example J214, 3-((5-Bromo-2-hydroxy-3-(trifluoromethoxy)phenyl)sulfonamido)-5-(1-cyanocyclobutyl)-2-hydroxy-N-methylbenzamide], the affinity, expressed as Ki, was 390 nM.
The molecule `O=C(NC1COC1)c1c(O)c(NS(=O)(=O)c2cc(Br)ccc2O)cc(C2CC2)c1F` [Example J128, 3-((5-Bromo-2-hydroxyphenyl)sulfonamido)-5-cyclopropyl-6-fluoro-2-hydroxy-N-(oxetan-3-yl)benzamide] yielded a Ki of 700 nM.
In turn, `COc1ccc(Br)cc1S(=O)(=O)Nc1cc(Cl)cc(C(=O)N(C)C)c1O` [Example J50, 3-((5-Bromo-2-methoxyphenyl)sulfonamido)-5-chloro-2-hydroxy-N,N-dimethylbenzamide] had a Ki of 74200 nM. This Ki is about 110-fold higher than that of the molecule before.
With `O=C(O)c1cc(C2CC2)cc(NS(=O)(=O)c2cc(Br)ccc2O)c1F` [Example J112, 3-((5-Bromo-2-hydroxyphenyl)sulfonamido)-5-cyclopropyl-2-fluorobenzoic acid] the figure was 780 nM; with `NC(=O)C(NC(=O)c1cc(OC(F)(F)F)cc(NS(=O)(=O)c2cc(Br)ccc2O)c1O)c1ccccn1` (centres unmarked) [HCH-49, N-(2-Amino-2-oxo-1-(pyridin-2-yl)ethyl)-3-((5-bromo-2-hydroxyphenyl)sulfonamido)-2-hydroxy-5-(trifluoromethoxy)benzamide], 320 nM; with `O=C(O)c1cc(Cl)cc(NS(=O)(=O)c2cc(Cl)c(F)cc2O)c1O` [Example J10, 5-Chloro-3-((5-chloro-4-fluoro-2-hydroxyphenyl)sulfonamido)-2-hydroxybenzoic acid], 21900 nM.
`CC(C)(C)c1cc(NS(=O)(=O)c2cc(Br)ccc2O)c(O)c(C(=O)O)c1` [Example J201, 3-((5-Bromo-2-hydroxyphenyl)sulfonamido)-5-(tert-butyl)-2-hydroxybenzoic acid] returned an inhibition constant Ki of 700 nM.
With `CC(C)C(O)CNC(=O)c1cc(OC(F)(F)F)cc(NS(=O)(=O)c2cc(Br)cc(Cl)c2O)c1O` (centres unmarked) [HCH-52, 3-((5-Bromo-3-chloro-2-hydroxyphenyl)sulfonamido)-2-hydroxy-N-(2-hydroxy-3-methylbutyl)-5-(trifluoromethoxy)benzamide] the figure was 140 nM; with `CCc1cc(NS(=O)(=O)c2cc(Br)cc(CC)c2O)c(O)c(C(=O)O)c1` [HCH-12, 3-((5-bromo-3-ethyl-2-hydroxyphenyl)sulfonamido)-5-ethyl-2-hydroxybenzoic acid], 200 nM.
Turning to `CNC(=O)c1cc(C2(C#N)CCCCC2)cc(NS(=O)(=O)c2cc(Br)cc(Cl)c2O)c1O` [Example J236, 3-((5-Bromo-3-chloro-2-hydroxyphenyl)sulfonamido)-5-(1-cyanocyclohexyl)-2-hydroxy-N-methylbenzamide], the affinity corresponds to a Ki of 240 nM.
With `CCCc1cc(Br)cc(S(=O)(=O)Nc2cc(Cl)cc([N+](=O)[O-])c2O)c1O` [NE10, 5-Bromo-N-(5-chloro-2-hydroxy-3-nitrophenyl)-2-hydroxy-3-propylbenzenesulfonamide], the Ki stood at 11700 nM.
